One test concerns the target T1, CDK7/Cyclin H/MNAT1 (Homo sapiens, UniProt P50613).
T1 construct: purchased Invitrogen PR6749B
Briefly: Enzymatic assay for CDK7 (LANCE Ultra kinase assay, FRET based). As to conditions: for IC50: ATP at Km. Format: biochemical. The essentials:
(§1)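 Inhibition of purified CDK/cyclin complexes was measured with ATP at its Km, using a ULight-labeled peptide substrate. Substrate phosphorylation was detected by FRET with a Europium-labeled anti-phospho-antibody.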

Another test concerns OVCAR-3. Put plainly: OVCAR-3 viability assay (CellTiter-Glo, 72 hours). It counts as cell-based. The conditions noted are these: Homo sapiens; OVCAR-3 cells. The procedure:
(§2) Human […] cell line, MV4-11_(ATCC, Cat #CRL-9591), NSCLC (Non-small cell lung cancer) cell line H460 (ATCC, Cat #HTB-177), A2780 (ECACC, Cat #93112519) and OVCAR-3(ATCC, Cat #HTB-161) were obtained from ATCC. Cells were grown in RPMI-1640 media (Invitrogen, Cat #22400-089) supplemented with 10% FBS (Invitrogen, Cat #10099141) and 1% penicillin/streptomycin (Invitrogen, Cat #15070063) and cultured at 37° C., 5% CO2 in a humidified chamber. All cell lines were routinely tested for mycoplasma.
(§3) To effect of the CDK7 inhibitor to inhibit the growth of target cancer cells, viability assay were conducted a 72 hour time period. Briefly, the candidate cell line was plated in 96 well plate at the following density of cells respectively. 1×10^4 cells/well for MV4-11, 5×10^3 for H460 and OVCAR-3, and 1×10^3 for A2780. After 24 hours, the cells were treated with various concentrations of the compound (ranging from 0.0015 uM to 10 uM). DMSO solvent without compound served as a control and final DMSO concentration lest than 0.1%. After 72 hours of incubation at 37° C., 5% CO2 incubator, cells were analyzed for the viability using the CellTiter-Glo Luminescent Cell Viability Assay (Promega, Cat #G7570). All viability assays were performed in duplicate and Luminescence was read using an Envision (Perkin Elmer, USA). Data was analyzed using XLfit software.
Background: In ATP-based viability assays light output follows the ATP content of the culture.

Another test has as its target T2, CDK1/Cyclin B (Homo sapiens, UniProt P06493).
T2 construct: purchased Invitrogen PR4768C
Put plainly: Enzymatic assay for CDK1 (LANCE Ultra kinase assay, FRET based). Format: biochemical. The conditions noted are these: ATP at Km; read-out: CDK1 enzymatic activity IC50. In a few lines: as §1
A general note: In TR-FRET formats the signal depends on donor and acceptor labels being close together.

Another test has as its target T3, CDK2/Cyclin A (Homo sapiens, UniProt P24941).
T3 construct: purchased Invitrogen PV6290
Put plainly: Enzymatic assay for CDK2 (LANCE Ultra kinase assay, FRET based). Format: biochemical. The conditions noted are these: ATP at Km. The essentials: (§4)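 Compounds tested as 8 doses in 4-fold steps against CDK2/Cyclin A ([…]) or CDK5/p25 ([…]), with ATP at its Km and 68 nM ULight-MBP substrate. After 60 min at 23° C., EDTA plus Eu-labelled anti-phospho-MBP added; TR-FRET (615/665 nm) read after another 60 min.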

For another test, the system named is A2780. Briefly: A2780 viability assay (CellTiter-Glo, 72 hours). As to conditions: Homo sapiens; A2780 cells. Format: cell-based. The procedure: as §2, §3
The next test deals with T4, CDK5/p25 (Homo sapiens, UniProt Q00535).
T4 construct: purchased Invitrogen PR8543B
Put plainly: Enzymatic assay for CDK5 (LANCE Ultra kinase assay, FRET based). It counts as biochemical. The conditions noted are these: ATP at Km. The essentials: as §4

Where only a bound is given, the exact number is not on record here.

Broadly, the IC50 is the midpoint of a concentration-inhibition curve.

T4 sequence (Q00535 whole entry): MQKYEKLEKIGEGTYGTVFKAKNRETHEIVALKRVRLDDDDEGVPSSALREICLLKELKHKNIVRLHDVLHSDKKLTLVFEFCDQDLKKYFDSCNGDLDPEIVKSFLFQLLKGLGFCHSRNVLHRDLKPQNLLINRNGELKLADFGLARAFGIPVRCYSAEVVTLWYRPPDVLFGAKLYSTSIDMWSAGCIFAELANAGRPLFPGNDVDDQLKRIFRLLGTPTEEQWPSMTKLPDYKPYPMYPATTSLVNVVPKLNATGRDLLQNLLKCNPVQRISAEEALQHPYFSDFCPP
T4 sequence (Q15078 99-307 partner limits assumed): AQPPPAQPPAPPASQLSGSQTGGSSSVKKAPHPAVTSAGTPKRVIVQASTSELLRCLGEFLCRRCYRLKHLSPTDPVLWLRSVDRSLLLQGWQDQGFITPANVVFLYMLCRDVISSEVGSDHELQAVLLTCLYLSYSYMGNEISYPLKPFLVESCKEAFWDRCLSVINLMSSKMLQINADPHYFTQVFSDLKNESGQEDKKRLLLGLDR
T1 sequence (P50613 whole entry): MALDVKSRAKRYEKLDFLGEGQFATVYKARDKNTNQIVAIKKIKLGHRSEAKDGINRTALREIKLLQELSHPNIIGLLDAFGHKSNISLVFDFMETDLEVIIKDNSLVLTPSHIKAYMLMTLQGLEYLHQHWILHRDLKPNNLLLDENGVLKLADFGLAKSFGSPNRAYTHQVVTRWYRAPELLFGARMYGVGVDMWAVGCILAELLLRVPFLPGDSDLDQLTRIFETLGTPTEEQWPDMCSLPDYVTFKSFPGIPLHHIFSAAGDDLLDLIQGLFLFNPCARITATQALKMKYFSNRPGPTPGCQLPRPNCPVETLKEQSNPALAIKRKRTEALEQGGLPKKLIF
T1 sequence (P51946 whole entry partner): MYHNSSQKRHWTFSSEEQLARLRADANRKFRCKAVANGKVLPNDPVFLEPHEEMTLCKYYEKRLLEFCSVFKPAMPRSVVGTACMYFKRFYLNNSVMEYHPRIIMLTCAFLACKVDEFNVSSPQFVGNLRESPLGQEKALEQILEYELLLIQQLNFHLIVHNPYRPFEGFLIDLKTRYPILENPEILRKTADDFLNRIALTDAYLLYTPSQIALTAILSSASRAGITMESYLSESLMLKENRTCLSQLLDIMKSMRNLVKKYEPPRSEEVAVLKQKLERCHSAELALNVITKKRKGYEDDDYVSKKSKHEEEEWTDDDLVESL
T1 sequence (P51948 whole entry partner): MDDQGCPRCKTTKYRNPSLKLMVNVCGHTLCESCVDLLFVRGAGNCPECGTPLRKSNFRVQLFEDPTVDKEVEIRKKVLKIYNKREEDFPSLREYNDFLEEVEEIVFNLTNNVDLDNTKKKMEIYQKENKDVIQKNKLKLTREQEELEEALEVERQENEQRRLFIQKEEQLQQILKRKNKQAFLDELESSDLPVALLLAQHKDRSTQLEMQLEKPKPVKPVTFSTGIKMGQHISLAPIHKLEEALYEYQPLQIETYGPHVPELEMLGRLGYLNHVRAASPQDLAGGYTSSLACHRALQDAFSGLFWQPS
T2 sequence (P06493 whole entry): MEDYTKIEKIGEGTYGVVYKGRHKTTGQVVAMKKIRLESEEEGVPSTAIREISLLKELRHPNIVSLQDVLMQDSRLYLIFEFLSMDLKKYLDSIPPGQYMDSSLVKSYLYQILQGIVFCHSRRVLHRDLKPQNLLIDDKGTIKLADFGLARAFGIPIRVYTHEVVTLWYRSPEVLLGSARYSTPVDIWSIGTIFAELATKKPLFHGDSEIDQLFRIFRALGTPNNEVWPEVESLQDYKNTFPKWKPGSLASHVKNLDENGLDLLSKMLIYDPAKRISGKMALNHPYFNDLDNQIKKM
T2 sequence (P14635 whole entry partner): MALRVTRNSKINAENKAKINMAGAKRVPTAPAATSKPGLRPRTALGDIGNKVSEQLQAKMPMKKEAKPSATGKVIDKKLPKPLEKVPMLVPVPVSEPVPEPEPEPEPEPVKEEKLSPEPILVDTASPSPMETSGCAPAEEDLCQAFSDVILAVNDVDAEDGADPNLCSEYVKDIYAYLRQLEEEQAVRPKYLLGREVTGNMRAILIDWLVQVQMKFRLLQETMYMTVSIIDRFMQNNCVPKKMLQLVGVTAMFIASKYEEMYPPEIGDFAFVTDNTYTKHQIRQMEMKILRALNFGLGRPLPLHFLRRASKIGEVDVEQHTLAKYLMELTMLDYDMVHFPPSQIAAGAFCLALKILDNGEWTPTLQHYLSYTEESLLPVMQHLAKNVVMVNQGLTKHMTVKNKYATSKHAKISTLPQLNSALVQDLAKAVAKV

In the case of `C=C(F)C(=O)Nc1ccc2c(-c3ccccc3CNc3nc(NC[C@H]4CNC[C@@H]4O)nc4c(C(C)C)cnn34)nccc2c1` [Compound 83], the IC50 at CDK7/Cyclin H/MNAT1 was less than 100 nM; in the test on OVCAR-3, less than 1000 nM; on CDK1/Cyclin B, greater than 1000 nM; at CDK2/Cyclin A it was greater than 1000 nM; with A2780, less than 1000 nM; against CDK5/p25 it was greater than 1000 nM. For the same molecule, the “CDK1/CDK7: Selectivity of CDK7 inhibition over CDK1 inhibition” value at CDK7/Cyclin H/MNAT1 was “A (A indicates [fold] > 500)”. Besides, the “CDK2/CDK7: Selectivity of CDK7 inhibition over CDK2 inhibition” value at CDK7/Cyclin H/MNAT1 was “A (A indicates [fold] > 500)”. For the same molecule, the “CDK5/CDK7: Selectivity of CDK7 inhibition over CDK5 inhibition” value on CDK7/Cyclin H/MNAT1 was “A (A indicates [fold] > 500)”.
Regarding `C=CC(=O)Nc1ccc2c(-c3ccccc3CNc3nc(N4CCN(CC(F)(F)F)CC4)nc4c(C(C)C)cnn34)nccc2c1` [Compound 210], the half-inhibitory concentration (IC50) was less than 100 nM against CDK7/Cyclin H/MNAT1; greater than 1000 nM on CDK1/Cyclin B; greater than 1000 nM against CDK2/Cyclin A; less than 1000 nM with A2780; greater than 1000 nM against CDK5/p25. Also, the “CDK1/CDK7: Selectivity of CDK7 inhibition over CDK1 inhibition” value at CDK7/Cyclin H/MNAT1 is “B (B indicates 50 < [fold] ≤ 500)”. For the same molecule, on CDK7/Cyclin H/MNAT1, the “CDK2/CDK7: Selectivity of CDK7 inhibition over CDK2 inhibition” value was “B (B indicates 50 < [fold] ≤ 500)”. Further, on CDK7/Cyclin H/MNAT1, the “CDK5/CDK7: Selectivity of CDK7 inhibition over CDK5 inhibition” value is “B (B indicates 50 < [fold] ≤ 500)”.
For the molecule `C=C(Cl)C(=O)Nc1ccc2c(-c3ccccc3CNc3nc(NC[C@H]4CCNC[C@@H]4O)nc4c(C(C)C)cnn34)nccc2c1` [Compound 206], the IC50 was less than 100 nM on CDK7/Cyclin H/MNAT1; greater than 1000 nM on CDK1/Cyclin B; greater than 1000 nM at CDK2/Cyclin A; less than 1000 nM in the test on A2780; greater than 1000 nM against CDK5/p25. Also, the “CDK1/CDK7: Selectivity of CDK7 inhibition over CDK1 inhibition” value on CDK7/Cyclin H/MNAT1 is “A (A indicates [fold] > 500)”. For the same molecule, on CDK7/Cyclin H/MNAT1, the “CDK2/CDK7: Selectivity of CDK7 inhibition over CDK2 inhibition” value was “A (A indicates [fold] > 500)”. Besides, the “CDK5/CDK7: Selectivity of CDK7 inhibition over CDK5 inhibition” value at CDK7/Cyclin H/MNAT1 was “A (A indicates [fold] > 500)”.
In the case of `C=CC(=O)Nc1ccc2c(-c3ccccc3CNc3nc(-c4cccnc4)nc4c(C(C)C)cnn34)nccc2c1` [Compound 200], the IC50 on CDK7/Cyclin H/MNAT1 is less than 100 nM; at CDK1/Cyclin B, greater than 1000 nM; against CDK2/Cyclin A, greater than 1000 nM; with A2780, less than 1000 nM; against CDK5/p25, greater than 1000 nM. In addition, the “CDK1/CDK7: Selectivity of CDK7 inhibition over CDK1 inhibition” value on CDK7/Cyclin H/MNAT1 was “B (B indicates 50 < [fold] ≤ 500)”. For the same molecule, the “CDK2/CDK7: Selectivity of CDK7 inhibition over CDK2 inhibition” value on CDK7/Cyclin H/MNAT1 is “B (B indicates 50 < [fold] ≤ 500)”. Besides, the “CDK5/CDK7: Selectivity of CDK7 inhibition over CDK5 inhibition” value at CDK7/Cyclin H/MNAT1 is “B (B indicates 50 < [fold] ≤ 500)”.
As for `C=CC(=O)Nc1ccc2c(-c3ccccc3CNc3cc(C)nc4c(C(C)C)cnn34)nccc2c1` [Compound 195], the IC50 was less than 100 nM against CDK7/Cyclin H/MNAT1; greater than 1000 nM at CDK1/Cyclin B; greater than 1000 nM on CDK2/Cyclin A; less than 1000 nM in the test on A2780; greater than 1000 nM at CDK5/p25. The “CDK1/CDK7: Selectivity of CDK7 inhibition over CDK1 inhibition” value on CDK7/Cyclin H/MNAT1 was “A (A indicates [fold] > 500)”. In addition, at CDK7/Cyclin H/MNAT1, the “CDK2/CDK7: Selectivity of CDK7 inhibition over CDK2 inhibition” value is “A (A indicates [fold] > 500)”. Further, the “CDK5/CDK7: Selectivity of CDK7 inhibition over CDK5 inhibition” value on CDK7/Cyclin H/MNAT1 was “A (A indicates [fold] > 500)”.
On to `C=CC(=O)Nc1ccc2c(-c3ccccc3CNc3nc(NCc4cnc(C)s4)nc4c(C(C)C)cnn34)nccc2c1` [Compound 196], for which the IC50 is greater than 1000 nM on CDK7/Cyclin H/MNAT1; greater than 1000 nM at CDK1/Cyclin B; greater than 1000 nM at CDK2/Cyclin A; 1000 to 10000 nM with A2780; greater than 1000 nM against CDK5/p25. The “CDK1/CDK7: Selectivity of CDK7 inhibition over CDK1 inhibition” value at CDK7/Cyclin H/MNAT1 was “C (C indicates [fold] ≤ 50)”. Besides, the “CDK2/CDK7: Selectivity of CDK7 inhibition over CDK2 inhibition” value on CDK7/Cyclin H/MNAT1 is “C (C indicates [fold] ≤ 50)”. Also, the “CDK5/CDK7: Selectivity of CDK7 inhibition over CDK5 inhibition” value on CDK7/Cyclin H/MNAT1 is “C (C indicates [fold] ≤ 50)”.
As for `C=C(C)C(=O)Nc1ccc2c(-c3ccccc3CNc3nc(Nc4cccnc4)nc4c(C(C)C)cnn34)nccc2c1` [Compound 207], the IC50 against CDK7/Cyclin H/MNAT1 is 100 to 1000 nM; on CDK1/Cyclin B, greater than 1000 nM; on CDK2/Cyclin A, greater than 1000 nM; in the test on A2780, less than 1000 nM; against CDK5/p25, greater than 1000 nM. The “CDK1/CDK7: Selectivity of CDK7 inhibition over CDK1 inhibition” value on CDK7/Cyclin H/MNAT1 is “B (B indicates 50 < [fold] ≤ 500)”. Also, on CDK7/Cyclin H/MNAT1, the “CDK2/CDK7: Selectivity of CDK7 inhibition over CDK2 inhibition” value is “B (B indicates 50 < [fold] ≤ 500)”. In addition, the “CDK5/CDK7: Selectivity of CDK7 inhibition over CDK5 inhibition” value at CDK7/Cyclin H/MNAT1 is “B (B indicates 50 < [fold] ≤ 500)”.

The record behind these values is patent publication US12606561B2, “Substituted pyrazolo[1,5-a][1,3,5]triazines as CDK inhibitors” (QURIENT CO., LTD., priority 2018, dated 2026).
